Data reported in patent US6403363B1, “Method of preservation of vaccines with polybiguanide” (priority 1997, dated 2002).
Where two headings read alike, the source gives them in different places.

How the values were obtained:
[1] = Visible effect of preservative on allantoic fluid; type: physicochemical; details: preservative 0.1%
Excerpt: The preserved samples were also examined to determine the visible effect on allantoic fluid, and the results are shown in Table 4 below.

[2] = tested on: seed virus grown in eggs; set-up: species or system influenza virus

**Q.** With `O=[N+]([O-])C(Br)(CO)CO` [Nipaguard BNPD] as the compound, how does the “Effect on allantoic fluid (visible)” value [1] read?
**A.** The value was “No effect”.

**Q.** What does the source list for `O=[N+]([O-])C(Br)(CO)CO` [bronopol, 2-bromo-2-nitropropan-1,2-diol]?
**A.** Infectivities (summary) ([2]; 0.1% preservative): Unsatisfactory; effect on egg infectivities ([2]; compared with Cosmocil CQ and thiomersal, 0.1% bronopol, 0.4% Biopure): pronounced negative effect; Log egg infective doses/ml ([2]; virus seed + 0.1% preservative): <5.4 log egg infective doses/ml

**Q.** Which “Log egg infective doses/ml” value ([2]; virus seed + 0.01% preservative) does the source give for `C[CH2][Hg][S]c1ccccc1C(=O)[O-].[Na+]` [thiomersal, sodium ethylmercurithiosalicylate] here?
**A.** The value was 8.2.
